Experimental data as given in patent US10251408B2, “Catechin function enhancement method” (KYUSHU UNIVERSITY, NATIONAL UNIVERSITY CORPORATION, priority 2014, dated 2019).

Key:
[1] = system: high-fat high-sucrose diet-fed obese model mice; assay: High-fat high-sucrose diet-fed mice: body weight, serum total cholesterol, LDL; assay type: in vivo, mouse; conditions: C57BL/6J mice, Yabukita 0.2% and/or eriodictyol 0.45 g/kg diet, 8 weeks, FIG. 5
From the text: Male C57BL/6J mice at 12 weeks of age were preliminarily kept for 1 week and then divided into 5 groups such that the average body weight was equal in all groups, i.e., a control (AIN-93G-based diet) group, a HF/HS (high-fat high-sucrose diet) group, a Yabukita (0.2%) (HF/HS+Yabukita) group, an eriodictyol (HF/HS+eriodictyol) group, and a Yabukita+eriodictyol (HF/HS+Yabukita+eriodictyol) group. A feed supplemented with Yabukita (0.2%) and eriodictyol (0.45 g/kg diet) was given to the mice. The feed was given in an amount of 4 g/day and the mice were kept for 8 weeks under ad libitum drinking conditions. After being fasted for 16 hours, the mice were sacrificed by abdominal aortic puncture under isoflurane anesthesia. The collected blood samples were allowed to stand at 37° C. for 2 hours to cause coagulation and then centrifuged at 4° C. at 2000×g for 15 minutes to collect serum fractions. The values of serum total cholesterol and LDL were measured. […] Yabukita and eriodictyol were examined for their effect on obesity in high-fat high-sucrose diet-fed obese model mice. Male C57BL/6J mice at 12 weeks of age were preliminarily kept for 1 week and then divided into the respective groups such that the average body weight was equal in all groups. Each feed was given in an amount of 4 g/day and the mice were kept for 8 weeks under ad libitum drinking conditions. After being measured for their body weight, the mice were fasted for 16 hours and then sacrificed by abdominal aortic puncture under isoflurane anesthesia. Blood samples collected by puncture were allowed to stand at 37° C. for 2 hours to cause coagulation and then centrifuged at 4° C. at 2000×g for 15 minutes to collect serum fractions. The values of serum total cholesterol and LDL were measured.

[2] = system: 3-hydroxy-3-methylglutaryl-CoA synthase (HMCGS); assay: Liver HMCGS mRNA by real-time PCR in HF/HS diet-fed mice; assay type: in vivo, mouse; conditions: HF/HS diet-fed C57BL/6J mice; Yabukita 0.2% and/or eriodictyol 0.45 g/kg diet; 8 weeks; FIG. 6
From the text: Male C57BL/6J mice at 12 weeks of age were preliminarily kept for 1 week and then divided into 5 groups such that the average body weight was equal in all groups, i.e., a control (AIN-93G-based diet) group, a HF/HS (high-fat high-sucrose diet) group, a Yabukita (0.2%) (HF/HS+Yabukita) group, an eriodictyol (HF/HS+eriodictyol) group, and a Yabukita+eriodictyol (HF/HS+Yabukita+eriodictyol) group. A feed supplemented with Yabukita (0.2%) and eriodictyol (0.45 g/kg diet) was given to the mice. The feed was given in an amount of 4 g/day and the mice were kept for 8 weeks under ad libitum drinking conditions. After being fasted for 16 hours, the mice were sacrificed by abdominal aortic puncture under isoflurane anesthesia. […] Yabukita and eriodictyol were examined for their effect on cholesterol metabolism-related gene expression in the liver of high-fat high-sucrose diet-fed obese model mice. C57BL/6J mice were preliminarily kept for 1 week and then divided into the respective groups such that the average body weight was equal in all groups. Each feed was given in an amount of 4 g/day and the mice were kept for 8 weeks under ad libitum drinking conditions. After being fasted for 16 hours, the mice were sacrificed by abdominal aortic puncture under isoflurane anesthesia.

[3] = system: Human multiple myeloma cell line U266; assay: Cancer cell death induction, viable cells by trypan blue assay (96-well plate, FIG. 9); assay type: cell-based; conditions: 96 hours, in combination with EGCG, EGCG 3″Me or green tea extract
Method: Human multiple myeloma cell line U266 was subcultured and maintained in RPMI 1640 medium supplemented with 10% FCS under conditions of 37° C. and water vapor-saturated 5% CO2. The cells were maintained in the logarithmic growth phase. The RPMI 1640 medium used for culture was prepared as follows: per liter of ultrapure water, RPMI 1640 medium (10.4 g), HEPES (2.38 g), injectable penicillin G potassium (100,000 units), streptomycin sulfate injectable (100 mg) and NaHCO3 (2.0 g) were suspended and then filter-sterilized.
The lemon peel extract used in the experiment was prepared as follows. Peels (100 g) were collected with a grater from 6 lemons and 100% EtOH (100 mL) was added thereto, followed by mashing with a mortar. The mashed mixture was further strained through gauze to remove fibers and then filtered by gravity using a #1 paper filter and a funnel to remove precipitates, followed by centrifugation at 12000×g to collect the supernatant. The resulting ethanol extract of lemon was evaporated with an evaporator to volatilize the solvent, thereby obtaining an ethanol-extracted lemon fraction. This ethanol-extracted lemon fraction was dissolved again in DMSO to give a lemon extract. […] After culture, viable cells were counted by trypan blue assay.
To evaluate the effect of combined use of EGCG or a structural analog thereof or an EGCG-containing naturally occurring product and eriodictyol or a structural analog thereof or an eriodictyol-containing naturally occurring product, human multiple myeloma cell line U266 was adjusted to 5×10^4 cells/mL and seeded in a 96-well plate, and then cultured for 96 hours in the presence of EGCG and eriodictyol added at a final concentration of 5 μM each. After culture for 96 hours, viable cells were counted by trypan blue assay.

## O=C1C[C@@H](c2ccc(O)c(O)c2)Oc2cc(O)cc(O)c21 [eriodictyol]
[1]
  high-fat high-sucrose diet-induced increase in body weight: no effect
  high-fat high-sucrose diet-induced increase in serum cholesterol value: no effect
[1]; serum
  high-fat high-sucrose diet-induced increase in LDL value: no effect
[2]
  mRNA expression level of HMCGS in the liver: no effect
[3]
  enhancement of the anticancer effect (viable cells) of EGCG, EGCG 3″Me or a green tea extract: remarkably enhance the anticancer effect
